Data reported in publication PMC6382874, “Succinylation-dependent mitochondrial translocation of PKM2 promotes cell survival in response to nutritional stress” (Cell Death & Disease, 2019).
Like-named read-outs stand apart in the source and are kept apart here. Peptide text beside a SMILES is read from it. * marks the point of attachment. Cbz = O=C(OCc1ccccc1)*

Key:
[1] = target: T1, PKM1 (Homo sapiens, UniProt P14618); experiment: fluorescent PK-LDH coupled assay, PKM1; assay type: biochemical
T1 construct: His-tag (N); made in house; host or cells: Escherichia coli BL21
T1 sequence (P14618 1-531 isoform P14618-2): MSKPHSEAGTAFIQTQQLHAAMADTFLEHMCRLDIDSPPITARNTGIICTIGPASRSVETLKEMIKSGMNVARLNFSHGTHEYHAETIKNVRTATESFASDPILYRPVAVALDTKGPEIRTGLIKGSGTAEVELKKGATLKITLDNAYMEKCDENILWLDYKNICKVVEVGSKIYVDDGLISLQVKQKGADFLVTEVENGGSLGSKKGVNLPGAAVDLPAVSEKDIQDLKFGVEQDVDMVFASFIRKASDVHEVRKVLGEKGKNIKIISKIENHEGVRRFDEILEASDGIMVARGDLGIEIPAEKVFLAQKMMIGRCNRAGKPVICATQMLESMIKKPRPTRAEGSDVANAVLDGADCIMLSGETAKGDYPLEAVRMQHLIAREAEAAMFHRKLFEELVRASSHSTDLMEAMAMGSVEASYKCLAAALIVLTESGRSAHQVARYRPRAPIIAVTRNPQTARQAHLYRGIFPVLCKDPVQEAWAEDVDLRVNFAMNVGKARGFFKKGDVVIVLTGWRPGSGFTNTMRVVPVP
Description: (§1) Human cDNA for PKM2, PKM1, and VDAC3 were separately cloned into a pET28a (+) and pGEX-4T-1 vector with an N-terminal His-tag and N-terminal GST-tag and purified from the Escherichia coli strain BL21 (Invitrogen) using Ni–agarose beads and GST agarose beads (Qiagen) as described previously. PKL was purchased from Sino Biological Inc. in China.
(§2) Pyruvate kinase activity was measured with a fluorescent pyruvate kinase–lactate dehydrogenase coupled assay as described previously. All compounds were tested in a kinetic mode by coupling the generation of pyruvate by pyruvate kinase to the depletion of NADH through lactate dehydrogenase. For PKM2, 40 μL of buffer (50 mM Tris–HCl, pH 7.5, 10 mM KCl, 5 mM MgCl2), 1 μL of compound and 5 μL of enzyme solution were dispensed into Corning black solid 96-well plates and incubated for 15 min. Totally, 55 μL of substrate mix (final concentration, 0.5 mM PEP, 4.0 mM ADP, 0.12 mM NADH, 0.25 mM FBP, and 1 unit LDH) were then added, and the plates were placed in a FlexStation3 (Molecular Devices), followed by determination of NADH fluorescence at 30 s exposure intervals for 3–6 min. Data were collected on a FlexStation3.

[2] = target: T2, PKL (Homo sapiens, UniProt P30613); experiment: fluorescent PK-LDH coupled assay, PKL; assay type: biochemical
T2 construct: purchased Sino Biological Inc
T2 sequence (P30613 1-543 isoform P30613-2, species assumed): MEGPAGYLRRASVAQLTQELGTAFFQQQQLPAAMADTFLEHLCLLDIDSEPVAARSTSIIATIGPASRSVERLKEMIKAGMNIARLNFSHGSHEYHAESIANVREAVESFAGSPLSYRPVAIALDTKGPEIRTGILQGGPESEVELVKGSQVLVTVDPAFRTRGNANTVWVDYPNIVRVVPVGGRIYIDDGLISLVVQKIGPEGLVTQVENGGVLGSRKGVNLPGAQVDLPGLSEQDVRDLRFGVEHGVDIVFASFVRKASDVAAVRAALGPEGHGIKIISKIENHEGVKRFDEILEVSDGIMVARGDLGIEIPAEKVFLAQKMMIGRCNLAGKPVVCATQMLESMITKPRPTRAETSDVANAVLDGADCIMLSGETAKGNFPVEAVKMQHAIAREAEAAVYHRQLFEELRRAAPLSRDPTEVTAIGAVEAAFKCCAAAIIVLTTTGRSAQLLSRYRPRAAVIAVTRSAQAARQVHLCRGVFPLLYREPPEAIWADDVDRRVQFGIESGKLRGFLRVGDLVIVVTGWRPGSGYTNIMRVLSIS
Description: as §1, §2

[3] = tested on: tumor cell; conditions: cited from earlier work
[4] = tested on: PKM2; parameters: method as in PMID 20005212; conditions: high-throughput screen; cited from earlier work
[5] = tested on: PKM2 succinylation; conditions: 100 μM, 10 h, HCT116
Description: Mitochondria and nuclear fractions were prepared from HCT116 cells under glucose starvation for 10 h. Immunofluorescence analysis was carried out after 10 h of glucose starvation. […] Analysis of PKM2 succinylation in whole-cell extracts prepared from HCT116 cells treated with increasing concentrations of glucose (0, 5, and 25 mM) or SIRT5 overexpression. Lysates prepared from these cells were pulled down with Flag beads and analyzed with antibody to succinylated lysine. d Effect of glucose starvation on endogenous PKM2 succinylation in cells. Analysis of PKM2 succinylation in whole-cell extracts prepared from HCT116 cells treated with increasing concentrations of glucose (0 and 25 mM). […] HCT116 cells were transfected with expression constructs of GFP-tagged vector control GFP-SIRT5. After 10 h glucose starvation, western blot analysis of cytosolic and mitochondrial fractions was performed to evaluate translocation of PKM2 from the cytosolic compartment to the mitochondria. […] 5000 HCT116 cells stably infected with Flag-PKM2 or Flag-PKM2 K433E virus were seeded into 96-well plates and live cell counts were measured in a blood cell counting chamber with trypan blue staining.

[6] = tested on: PKM2 mitochondrial translocation; experiment: PKM2 mitochondrial translocation (fractionation, western blot) in HCT116 cells; assay type: cell-based, human; conditions: for PKM2 mitochondrial translocation: HCT116, Supplementary Figure S1a
Description: (§3) Fig. 6 Compound 8 blocks PKM2 mitochondrial translocation under nutritional stress and inhibits tumor growth in vivo. a Compound 8 blocks glucose starvation induced PKM2 mitochondrial translocation. Isolation of mitochondria and immunoblot of PKM2, tubulin and Tom 40 were carried out with or without compound 8 treatment. b Compound 8 disrupts interaction of PKM2 and VDAC3. HCT116 cells were transfected with HA-tagged PKM2, cells were harvested and subjected to stag pull down after 8 h 20 µM compound 8 treatment. c Compound 8 induces VDAC3 for degradation. cells were harvested and evaluated VDAC3 protein levels after 8 h 10 or 20 µM compound 8 treatment. d, e Compound 8 caused a decrease in the rate of NADH oxidation. After 8 h of treatment with 20 µM compound 8, HCT116 cells mitochondria were isolated for NADH oxidation assays. NAD/NADH ratios in HCT116 cell lysates were evaluated by LC–MS. f Compound 8 inhibited ATP production in HCT116 cells. g The tumor volume (n = 7) of HCT116 xenografts from mice with intraperitoneal injection of compound 8 and vehicle control
HCT116 cells were harvested and washed two times with cold PBS. Cells were then homogenized in a buffer (220 mM mannitol, 70 mM sucrose, 2 mM EGTA, 5 mM MOPS-Tris pH 7.4, 2 mM Taurine, 0.2% BSA). The homogenate was spun for 5 min at 800g.The supernatant containing the cytoplasmic and mitochondrial fractions were transferred to a fresh tube and spun for 5 min at 12,000g. The pellet contained the mitochondrial fraction and the supernatant contained the cytoplasmic fraction.
Cells were lysed in buffer containing 50 mM Tris pH8.0, 2 mM EDTA, 150 mM NaCl, 0.5% Nonidet P-40, 10% glycerol and protease inhibitor PMSF. Western blot analysis was carried out based on standard methods. The following commercial antibodies were used as probes: anti-Flag antibody (Sigma, F3165), anti-HA antibody (Sigma, H3663), anti-α-Tubulin (EasyBio, BE0026–100), anti-PKM2 (RuiYingBio, RLT3777), anti-TOM 40 (Santa Cruz sc-365467), anti-succinyllysine antibody (PTM BIO PTM-901), anti-GAPDH (SanJian).

[7] = tested on: VDAC3; experiment: VDAC3 protein level (western blot) in HCT116 cells; assay type: cell-based, human; conditions: 10 μM, 8 h, HCT116
Excerpt: HCT116 cell lysates were subject to immunoprecipitation with control IgG and anti-VDAC3 antibodies. d, e In vitro binding assay of purified His-tagged-PKM2 and GST-tagged-VDAC3. f K433E enhanced the interaction of PKM2 and VDAC3. Stagged-WT PKM2, a succinylation mimic K433E and a succinylation null mutant K433R and flag-VDAC3 were co-transfected into HCT116 cells for Stag bead pull down that specially pulls down Stagged proteins. g Glucose starvation enhanced the interaction of PKM2 and VDAC3. […]
as §3, with “Isolation of mitochondria and immunoblot of PKM2, tubulin and Tom 40 were carried out with or without compound 8 treatment. b Compound 8 disrupts interaction of PKM2 and VDAC3.” left out, “After 8 h of treatment with 20 µM compound 8, HCT116 cells mitochondria were isolated for NADH oxidation assays.” left out, “control […]” for “control”

[8] = target: PKM2 (Homo sapiens, UniProt P14618); experiment: fluorescent pyruvate kinase-lactate dehydrogenase (PK-LDH) coupled assay, PKM2; assay type: biochemical; parameters: His-tag (N); made in house; host or cells: Escherichia coli BL21
PKM2 (Homo sapiens, UniProt P14618), sequence (P14618 whole entry): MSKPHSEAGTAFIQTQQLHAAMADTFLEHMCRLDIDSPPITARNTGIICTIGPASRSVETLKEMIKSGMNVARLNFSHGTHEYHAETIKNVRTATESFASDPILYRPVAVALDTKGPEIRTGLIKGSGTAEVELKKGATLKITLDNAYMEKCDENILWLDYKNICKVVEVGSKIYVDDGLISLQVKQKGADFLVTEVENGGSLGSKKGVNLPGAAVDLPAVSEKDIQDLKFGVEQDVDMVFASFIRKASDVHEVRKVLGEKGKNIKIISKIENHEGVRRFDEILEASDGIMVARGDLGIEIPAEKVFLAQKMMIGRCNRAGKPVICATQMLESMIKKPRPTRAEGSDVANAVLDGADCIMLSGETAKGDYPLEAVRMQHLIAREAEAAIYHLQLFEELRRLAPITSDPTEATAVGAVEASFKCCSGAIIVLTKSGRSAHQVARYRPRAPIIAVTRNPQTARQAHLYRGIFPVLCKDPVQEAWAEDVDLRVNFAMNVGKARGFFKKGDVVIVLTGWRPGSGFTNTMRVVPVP
Description: A random screening of an in-house small molecule library (~1000 total molecules) was undertaken to identify new PKM2 modulators, which can block the interaction of PKM2 and VDAC3. The activity of these test compounds was assessed with a fluorescent PK-LDH coupled assay by a previously reported method (Supplementary Figure S4a)[37]. […] We undertook structural optimization by chemical modification. We designed new compounds utilizing a methyl group instead of the NP-1 chlorine moiety. Synthesis of target compounds was carried out according to the six-step protocol outlined in Supplementary Figure S4d, which was based on a previously described procedure[39],[40].
as §1, §2

[9] = tested on: HCT116 cells; experiment: cell viability test, HCT116; assay type: cell-based, human; conditions: Homo sapiens, HCT-116, 48 h, read-out: IC50 (HCT116)
Description: (§4) We assessed the anti-tumor effects of compound 8 by evaluation of cancer cell viability. Compound 8 reduced cell viability with an IC50 of about 5 µM in MTT reduction assays in HCT116, MCF7, and H1299 cells (Table 2). […] To determine whether cancer cell death brought about by compound 8 is PKM2 dependent, PKM2 was knocked down in HCT116 cells using two different shRNA sequences that specifically targeted exon 10 without interfering with PKM1 expression. Compound 8 is an inhibitor which causes a loss of function of PKM2. If PKM2 is a specially targeted by compound 8, its knockdown should render cells more vulnerable to compound 8-mediated PKM2 inhibition since shRNA and compound 8 work synergistically by reducing the intracellular drug target concentration.
(§5) Cells were seeded in 96-well plates at 5000 cells/well in DMEM media overnight. Cells were treated with different concentrations of test compound for 48 h at 37 °C in 5% CO2. Cell viability was assayed with the MTS assay (Promega) and trypan blue staining according to the manufacturer’s instructions.

[10] = tested on: MCF7 cells; experiment: cell viability test, MCF7; assay type: cell-based; conditions: Homo sapiens, MCF7, 48 h, read-out: IC50 (MCF7)
Description: as §4, §5

[11] = tested on: H1299 cells; experiment: cell viability test, H1299; assay type: cell-based; conditions: Homo sapiens, NCI-H1299, 48 h, read-out: IC50 (H1299)
Description: as §4, §5

Compound: CC(C)=CC[C@@H](O)C1=CC(=O)c2c(O)ccc(O)c2C1=O [Shikonin, reference compound]
- IC50 ([1]; recombinant enzyme, PK-LDH coupled assay, read-out: IC50 (PKM1)): 13 ± 3.37 µM
- IC50 ([2]; PK-LDH coupled assay, read-out: IC50 (PKL)): 39.2 ± 6.53 µM
- induction of cell apoptosis [3]: induces cell apoptosis at low concentrations

Compound: Cc1ccc(C)n1-c1ccc(O)c(C(=O)O)c1 [Compound 3]
- PKM2 inhibition [4]: inhibits PKM2 activity at micromolar concentrations
- suppression of tumor cell proliferation [3]: little suppression of tumor cell proliferation below 200 µM

Compound: O=C(O)CCC(=O)O [succinic acid, reference compound]
- PKM2 succinylation [5]: increased PKM2 succinylation
- mitochondrial PKM2 ([6]; 100 μM, 10 h, HCT116): increased mitochondrial PKM2

Compound: CC(C)C[C@@H](C=O)NC(=O)[C@H](CC(C)C)NC(=O)[C@H](CC(C)C)NC(=O)OCc1ccccc1 [MG132, reference compound] (Cbz-Leu-Leu-Leu-aldehyde)
- VDAC3 protein level [7]: upregulated VDAC3

Compound: CC1=C(COP(N)(=O)N(CCCl)CCCl)C(=O)c2ccccc2C1=O (stereo not drawn) [NP-1]
- IC50 [8]: 2.93 ± 0.77 µM
- PKM2 inhibitory activity compared with shikonin ([8]; Supplementary Figure S4b): more powerful than shikonin
- selectivity for PKM2 over PKM1 and PKL ([8]; Supplementary Figure S4c): highly selective, dose-dependent inhibition of PKM2 with less inhibition of PKM1 and PKL
- IC50 [9]: 14.3 ± 3.57 µM
- IC50 [10]: 17.5 ± 6.34 µM
- IC50 [1]: 13.7 ± 1.14 µM
- IC50 [2]: 69.6 ± 6.26 µM
- IC50 [11]: 8.17 ± 1.92 µM

Compound: epidermal growth factor: growth factor used to stimulate HCT116 cells
- PKM2 mitochondrial translocation [6]: did not increase PKM2 mitochondrial translocation

Compound: insulin: hormone used to stimulate HCT116 cells
- PKM2 mitochondrial translocation [6]: did not increase PKM2 mitochondrial translocation
